Experimental data as given in article PMC9855884, “Glycosylated Lipopeptides—Synthesis and Evaluation of Antimicrobial Activity and Cytotoxicity” (Biomolecules, 2023).
Where a SMILES comes first, the peptide text is derived from it. The star is where a group is joined. βGlcNAc = CC(=O)N[C@@H]1[C@@H](O)[C@H](O)[C@@H](CO)O[C@H]1*; Stearoyl = CCCCCCCCCCCCCCCCCC(=O)*

What was measured:
Conditions in all cases: 24 h
S. aureus biofilm = assay type: cell-based, Staphylococcus aureus
Experimental: (§1) The Acinetobacter baumannii ATCC BAA-1605, Enterococcus faecium ATCC 700221, Klebsiella aerogenes ATCC 13048, Klebsiella pneumoniae ATCC 700603, Pseudomonas aeruginosa ATCC 9027, Staphylococcus aureus ATCC 33591, Candida glabrata ATCC 15126, strains were acquired from the American Type Culture Collection (ATCC). All the strains were stored at −80 °C in Roti-Store cryo vials and were transferred into fresh Mueller–Hinton broth (MHB, Becton Dickinson, Warsaw, Poland) for bacteria or RPMI-1640 (Sigma-Aldrich, Steinheim, Germany) for fungi before the tests and incubated for 24 h at 37 °C. Then, the cultures were seeded on the Mueller–Hinton agar (BioMaxima, Lublin, Poland) or Sabouraud dextrose agar (SDA, BioMaxima, Lublin, Poland) plates, respectively, and incubated as just mentioned. These agar cultures were used for further microbiological assays. Cell densities for all assays were adjusted spectrophotometrically (Multiskan GO Microplate Spectrophotometer, Thermo Fisher Scientific, Vantaa, Finland) at 600 and 530 nm for bacteria and fungi, respectively.
(§2) The MBECs were determined as previously described, using 96-well polystyrene flat-bottom plates. For this purpose, 24 h cultures of microorganisms were diluted to obtain a final density of 5.0 × 10^5 CFU/mL and 2.0 × 10^5 CFU/mL of bacteria and fungi, respectively. Microorganisms were diluted in MHB or RPMI-1640 with 2% D-glucose (bacteria and fungi, respectively). Briefly, 100 µL of cell suspension was added into the test plates. After 24 h of incubation at 37 °C, the wells were rinsed three times with a phosphate buffer saline (PBS, pH 7.4) to remove non-adherent cells. Subsequently, 100 μL of the test compounds over the concentration range (1–512 μg/mL) were added to each well. After 24 h of incubation at 37 °C, 20 μL of a cell viability reagent was added (resazurin, 4 g/L; Sigma Aldrich, St. Louis, MO, USA). The MBEC was read after 1 h. The determined values were recorded as the lowest concentration at which the reduction of resazurin (from blue to pink) […]. All experiments were conducted in triplicate.

A. baumannii biofilm = assay type: cell-based, Acinetobacter baumannii
Experimental: as §1, §2

P. aeruginosa biofilm = assay type: cell-based, Pseudomonas aeruginosa
Experimental: as §1, §2

SMILES | MBEC (S. aureus biofilm) | MBEC (A. baumannii biofilm) | MBEC (P. aeruginosa biofilm)
CCCCCCCCCCCCCCCCCC(=O)N[C@@H](CO[C@@H]1O[C@H](CO)[C@@H](O)[C@H](O)[C@H]1NC(C)=O)C(=O)N[C@@H](CCCNC(=N)N)C(=O)N[C@@H](CCCNC(=N)N)C(N)=O [Peptide 16, C18-S(GlcNAc)RR-NH2] (Stearoyl-Ser(βGlcNAc)-Arg-Arg-NH2) | 256 µg/mL | 512 µg/mL | 512 µg/mL
CCCCCCCCCCCCCCCCCC(=O)N[C@@H](CO)C(=O)N[C@@H](CCCNC(=N)N)C(=O)N[C@@H](CCCNC(=N)N)C(N)=O [Peptide 7, C18-SRR-NH2] (Stearoyl-Ser-Arg-Arg-NH2) | 512 µg/mL | 512 µg/mL | 512 µg/mL
CCCCCCCCCCCCCCCCCC(=O)N[C@@H](CCCNC(=N)N)C(=O)N[C@@H](CCCNC(=N)N)C(=O)N[C@@H](CO)C(N)=O [Peptide 9, C18-RRS-NH2] (Stearoyl-Arg-Arg-Ser-NH2) | 256 µg/mL | 512 µg/mL | >512 µg/mL
CCCCCCCCCCCCCCCCCC(=O)N[C@@H](CCCNC(=N)N)C(=O)N[C@@H](CO[C@@H]1O[C@H](CO)[C@@H](O)[C@H](O)[C@H]1NC(C)=O)C(=O)N[C@@H](CCCNC(=N)N)C(N)=O [Peptide 17, C18-RS(GlcNAc)R-NH2] (Stearoyl-Arg-Ser(βGlcNAc)-Arg-NH2) | 128 µg/mL | 512 µg/mL | >512 µg/mL
CCCCCCCCCCCCCCCCCC(=O)N[C@@H](CCCNC(=N)N)C(=O)N[C@@H](CO)C(=O)N[C@@H](CCCNC(=N)N)C(N)=O [Peptide 8, C18-RSR-NH2] (Stearoyl-Arg-Ser-Arg-NH2) | 256 µg/mL | 512 µg/mL | >512 µg/mL
CCCCCCCCCCCCCCCCCC(=O)N[C@@H](CCCNC(=N)N)C(=O)N[C@@H](CCCNC(=N)N)C(=O)N[C@@H](CO[C@@H]1O[C@H](CO)[C@@H](O)[C@H](O)[C@H]1NC(C)=O)C(N)=O [Peptide 18, C18-RRS(GlcNAc)-NH2] (Stearoyl-Arg-Arg-Ser(βGlcNAc)-NH2) | 128 µg/mL | 256 µg/mL | 512 µg/mL
